Values quoted from earlier work as cited in patent US9107941B2, “Methods and compositions for reducing L-pipecolic acid effects in animals” (SarTec Corporation, priority 2006, dated 2015).

Tests used:
chicks = conditions: ICV injection

O=C(O)[C@@H]1CCCCN1 [L-PIP, L-pipecolic acid]
apoptosis in neuronal cells (neuronal cells): induce apoptosis | food intake (chicks): inhibited food intake | sleep-like behavior (chicks): induced sleep-like behavior
